For 20 compounds, TGI results are on record in PubChem BioAssay (NCI).

Test systems include DU-145 prostate; U251 CNS; MALME-3M melanoma; SNB-19 CNS; SNB-75 CNS; SK-OV-3 ovarian; HCC-2998 colon; OVCAR-5 ovarian; EKVX NSCLC; M14 melanoma; KM12 colon.
Test in all cases: NCI anticancer screen, dose series, 48 h

Each structure is given as a SMILES string.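 Protocol summary: plate cells (96-well), add compound at 5 concentrations, incubate 48 h, interpolate endpoints linearly. The concentration for full growth arrest is given as TGI.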 Some results are limits rather than exact numbers.

For the compound `CC1=CC=CC(C)(C)CC1(O[Si](C)(C)C)C(F)(F)F` (stereo not given), the TGI in the assay on DU-145 prostate, in the assay on U251 CNS, in the assay on MALME-3M melanoma, in the assay on SNB-19 CNS, with SNB-75 CNS and with SK-OV-3 ovarian was greater than 100 µM each time. Further, the TGI in the assay on HCC-2998 colon, in the assay on OVCAR-5 ovarian, in the assay on EKVX NSCLC, with M14 melanoma and in the assay with KM12 colon was greater than 100 µM throughout.
As for `CCOP(=O)(OCC)/C(F)=C/c1ccccc1`, the TGI with DU-145 prostate, in the assay with U251 CNS, in the assay with MALME-3M melanoma, with SNB-19 CNS, in the assay on SNB-75 CNS and with SK-OV-3 ovarian was greater than 100 µM throughout. Moreover, the TGI in the assay on HCC-2998 colon, in the assay with OVCAR-5 ovarian, in the assay on EKVX NSCLC, in the assay on M14 melanoma and in the assay with KM12 colon was greater than 100 µM throughout.
For the compound `O=C(O)c1ccc(NS(=O)(=O)Cc2ccccc2)cc1`, the TGI with DU-145 prostate, in the assay with U251 CNS, in the assay with MALME-3M melanoma, with SNB-19 CNS, in the assay on SNB-75 CNS and in the assay on SK-OV-3 ovarian was greater than 100 µM throughout. Moreover, the TGI in the assay on HCC-2998 colon, in the assay with OVCAR-5 ovarian, in the assay on EKVX NSCLC, in the assay with M14 melanoma and in the assay with KM12 colon was greater than 100 µM each time.
For the compound `C/C(=N/NC(=S)Nc1cccc(C)c1)c1ccccn1`, the TGI in the assay on DU-145 prostate stood at 8.29 µM; in the assay on U251 CNS, 4.89 µM; in the assay on MALME-3M melanoma, 8 µM; in the assay with SNB-19 CNS, 14.3 µM; in the assay with SNB-75 CNS, 5.08 µM; with SK-OV-3 ovarian, 2.78 µM. Moreover, the TGI came out at 4.18 µM in the assay with HCC-2998 colon; 2.67 µM in the assay on OVCAR-5 ovarian; 2.3 µM in the assay on EKVX NSCLC; 2.46 µM in the assay on M14 melanoma; 4.12 µM with KM12 colon.
Consider `C(=Nc1ccc(-c2nc3ccccc3s2)cc1)c1ccco1`, for which the TGI in the assay with DU-145 prostate, with U251 CNS, with MALME-3M melanoma, with SNB-19 CNS, with SNB-75 CNS and in the assay on SK-OV-3 ovarian was greater than 100 µM throughout. For the same compound, the TGI with HCC-2998 colon, with OVCAR-5 ovarian, in the assay with EKVX NSCLC, in the assay on M14 melanoma and in the assay with KM12 colon was greater than 100 µM each time.
Consider `CCN(CC)CCCn1c(=O)c2cccnc2n2c3c(=O)n(C)c(=O)n(C)c3nc12`, for which the TGI in the assay on DU-145 prostate, in the assay with U251 CNS, in the assay with MALME-3M melanoma, in the assay with SNB-19 CNS, in the assay on SNB-75 CNS and in the assay on SK-OV-3 ovarian was greater than 100 µM throughout. For the same compound, the TGI in the assay on HCC-2998 colon, with OVCAR-5 ovarian, in the assay with EKVX NSCLC, in the assay with M14 melanoma and in the assay with KM12 colon was greater than 100 µM each time.
As to `c1ccc2c(c1)CCCN1CCc3ccccc3C21` (stereo not given), the TGI in the assay on DU-145 prostate, in the assay with U251 CNS, in the assay with MALME-3M melanoma, in the assay with SNB-19 CNS, in the assay with SNB-75 CNS and with SK-OV-3 ovarian was greater than 100 µM in each case. Besides, the TGI with HCC-2998 colon, with OVCAR-5 ovarian, in the assay with EKVX NSCLC, in the assay on M14 melanoma and with KM12 colon was greater than 100 µM each time.
In the case of `CCOC(=O)C1C(=O)CC(O)(c2ccccc2)C(C(=O)OCC)C1c1ccc(OC)cc1` (stereo not given), the TGI in the assay on DU-145 prostate is greater than 100 µM; with U251 CNS it was greater than 76.8 µM; with MALME-3M melanoma, greater than 100 µM; with SNB-19 CNS it was greater than 72.5 µM; in the assay on SNB-75 CNS, 11.9 µM; with SK-OV-3 ovarian, 89.9 µM. Besides, the TGI with HCC-2998 colon was greater than 100 µM; with OVCAR-5 ovarian, greater than 100 µM; in the assay with EKVX NSCLC, greater than 100 µM; in the assay with M14 melanoma, 82.9 µM; in the assay with KM12 colon, 39.8 µM.
For the compound `CSc1c(C(=O)Nc2ccc(C)cc2)c(N)[nH]c(=O)c1C#N`, the TGI in the assay with DU-145 prostate, in the assay on U251 CNS, in the assay with MALME-3M melanoma, in the assay with SNB-19 CNS, in the assay on SNB-75 CNS and in the assay on SK-OV-3 ovarian was greater than 100 µM in each case. In addition, the TGI in the assay on HCC-2998 colon, with OVCAR-5 ovarian, with EKVX NSCLC, in the assay on M14 melanoma and in the assay with KM12 colon was greater than 100 µM throughout.
On to `O=C1C(Br)=Cc2c(Cl)sc(Cl)c21`, for which the TGI with DU-145 prostate was found to be 18 µM; in the assay with U251 CNS it was 7.53 µM; with MALME-3M melanoma, 29 µM; in the assay with SNB-19 CNS it was 50.7 µM; in the assay on SNB-75 CNS it was 30.4 µM; with SK-OV-3 ovarian, 35.8 µM. The TGI in the assay with HCC-2998 colon came out at 7.71 µM; in the assay with OVCAR-5 ovarian, 36 µM; in the assay on EKVX NSCLC, 22.2 µM; in the assay on M14 melanoma, 26.7 µM; with KM12 colon it was 20.3 µM.
On to `CC1=C2c3ccccc3N(C(=O)/C=C/C(=O)O)[C@H]2[C@H]2C(=O)OC(=O)[C@H]2C1`, for which the TGI with DU-145 prostate, in the assay with U251 CNS, in the assay with MALME-3M melanoma, in the assay with SNB-19 CNS, in the assay on SNB-75 CNS and with SK-OV-3 ovarian was greater than 10 µM throughout. Moreover, the TGI in the assay with HCC-2998 colon, in the assay with OVCAR-5 ovarian, in the assay with EKVX NSCLC, with M14 melanoma and in the assay with KM12 colon was greater than 10 µM in each case.
Regarding `C=CC/C(C(=O)OC)=C(/C(=O)OC)N(CCC)CCC`, the TGI in the assay with DU-145 prostate, in the assay on U251 CNS, in the assay with MALME-3M melanoma, with SNB-19 CNS, in the assay with SNB-75 CNS and in the assay on SK-OV-3 ovarian was greater than 100 µM throughout. Moreover, the TGI in the assay with HCC-2998 colon, with OVCAR-5 ovarian, in the assay with EKVX NSCLC, in the assay on M14 melanoma and in the assay on KM12 colon was greater than 100 µM in each case.
`COC(=O)C1CC(C=[N+](C)C)=C(SC)N1` (stereo not given): the TGI in the assay on DU-145 prostate, in the assay on U251 CNS, in the assay with MALME-3M melanoma, in the assay on SNB-19 CNS, in the assay with SNB-75 CNS and with SK-OV-3 ovarian was greater than 100 µM throughout. Besides, the TGI in the assay with HCC-2998 colon, with OVCAR-5 ovarian, in the assay on EKVX NSCLC, in the assay on M14 melanoma and with KM12 colon was greater than 100 µM throughout.
As for `O=C1OC[C@@H]2Cc3c([nH]c4ccccc34)[C@@H](c3ccc(O)cc3)N12`, the TGI with DU-145 prostate is greater than 100 µM; in the assay on U251 CNS it was greater than 100 µM; in the assay with MALME-3M melanoma, 85.1 µM; with SNB-19 CNS, greater than 100 µM; with SNB-75 CNS it was 69.4 µM; with SK-OV-3 ovarian it was greater than 95.1 µM. Besides, the TGI with HCC-2998 colon is greater than 96.7 µM; with OVCAR-5 ovarian, greater than 100 µM; with EKVX NSCLC it was greater than 100 µM; in the assay with M14 melanoma, 54.7 µM; in the assay with KM12 colon it was 53.1 µM.
`Cc1nc2ccc([N+](=O)[O-])cc2c(=O)n1C(=S)Nc1cccc(Cl)c1`: the TGI was greater than 100 µM in the assay on DU-145 prostate; 66.9 µM with U251 CNS; 49.1 µM with MALME-3M melanoma; greater than 100 µM in the assay on SNB-19 CNS; 40.8 µM with SNB-75 CNS; 71.8 µM in the assay on SK-OV-3 ovarian. Further, the TGI in the assay on HCC-2998 colon is 26 µM; in the assay on OVCAR-5 ovarian, greater than 100 µM; with EKVX NSCLC, greater than 100 µM; with M14 melanoma it was 53.6 µM; in the assay on KM12 colon, 32.2 µM.
Take `Cc1nc(Cl)c(CBr)c(Cl)n1`: the TGI in the assay with DU-145 prostate came out at 8.33 µM; in the assay on U251 CNS it was 4.1 µM; in the assay with MALME-3M melanoma it was 2.92 µM; in the assay on SNB-19 CNS, 11.2 µM; in the assay on SNB-75 CNS, 2.26 µM; with SK-OV-3 ovarian, 12.7 µM. In addition, the TGI in the assay on HCC-2998 colon amounted to 11.5 µM; in the assay on OVCAR-5 ovarian it was 3.84 µM; in the assay on EKVX NSCLC, 11.8 µM; with M14 melanoma, 0.949 µM; with KM12 colon, 2.72 µM.
Consider `O=C1/C(=C/c2ccc(F)cc2)CNC/C1=C\c1ccc(F)cc1`, for which the TGI was found to be 3.96 µM in the assay with DU-145 prostate; 1.39 µM with U251 CNS; 13.2 µM in the assay on MALME-3M melanoma; 6.2 µM with SNB-19 CNS; 18.3 µM in the assay with SNB-75 CNS; 29.6 µM in the assay on SK-OV-3 ovarian. Besides, the TGI came out at 1.74 µM with HCC-2998 colon; 8.99 µM in the assay on OVCAR-5 ovarian; 4.64 µM with EKVX NSCLC; 4.35 µM in the assay with M14 melanoma; 1.59 µM in the assay with KM12 colon.
Take `Cc1cccc(N(CCC#N)S(=O)(=O)c2ccccc2)c1`: the TGI with DU-145 prostate, in the assay on U251 CNS, in the assay with MALME-3M melanoma, in the assay with SNB-19 CNS, in the assay with SNB-75 CNS and in the assay with SK-OV-3 ovarian was greater than 100 µM in each case. Also, the TGI in the assay with HCC-2998 colon, with OVCAR-5 ovarian, in the assay on EKVX NSCLC, with M14 melanoma and in the assay with KM12 colon was greater than 100 µM each time.
On to `CC(C)/C(Cl)=N\OC(=O)NNc1ccccc1`, for which the TGI in the assay on DU-145 prostate is greater than 100 µM; with U251 CNS, greater than 100 µM; with MALME-3M melanoma, 38.3 µM; with SNB-19 CNS, greater than 100 µM; in the assay on SNB-75 CNS, greater than 100 µM; with SK-OV-3 ovarian, greater than 100 µM. Also, the TGI was greater than 100 µM in the assay on HCC-2998 colon; greater than 100 µM in the assay with OVCAR-5 ovarian; 37.3 µM in the assay with EKVX NSCLC; greater than 56.3 µM in the assay on M14 melanoma; greater than 100 µM in the assay with KM12 colon.
On to `CC(C)(CO)N1C(=O)c2ccccc2C1(O)c1ccc(Cl)cc1` (stereo not given), for which the TGI in the assay with DU-145 prostate, in the assay with U251 CNS, in the assay on MALME-3M melanoma, with SNB-19 CNS, in the assay with SNB-75 CNS and in the assay with SK-OV-3 ovarian was greater than 100 µM each time. In addition, the TGI in the assay on HCC-2998 colon, in the assay on OVCAR-5 ovarian, with EKVX NSCLC, with M14 melanoma and in the assay on KM12 colon was greater than 100 µM throughout.
